What was measured:
[1] = tested on: LAPC4 cells; test: Cell viability assay (CellTiter-Glo); type: cell-based, human
Description: LAPC4 cells or the long-term Enz treated LAPC4 cells were plated in triplicate in 96 well plates coated with poly-DL-ornithine and incubated overnight, then treated with Enz and assayed in triplicate at the time points indicated using CellTiter-Glo (Promega). Viability is normalized to day 0.

[2] = target: T1, 11β-HSD2 (Homo sapiens, UniProt P80365); test: Direct 11β-HSD2 antagonism: cortisol to cortisone conversion in LAPC4 cells transfected with 11β-HSD2 vector; type: cell-based; conditions: LAPC4 transfected with 11β-HSD2 vector, [3H]-cortisol 100 nM
T1 construct: FLAG; expressed in transfected cells; host or cells: LAPC4
T1 sequence (P80365 1-405): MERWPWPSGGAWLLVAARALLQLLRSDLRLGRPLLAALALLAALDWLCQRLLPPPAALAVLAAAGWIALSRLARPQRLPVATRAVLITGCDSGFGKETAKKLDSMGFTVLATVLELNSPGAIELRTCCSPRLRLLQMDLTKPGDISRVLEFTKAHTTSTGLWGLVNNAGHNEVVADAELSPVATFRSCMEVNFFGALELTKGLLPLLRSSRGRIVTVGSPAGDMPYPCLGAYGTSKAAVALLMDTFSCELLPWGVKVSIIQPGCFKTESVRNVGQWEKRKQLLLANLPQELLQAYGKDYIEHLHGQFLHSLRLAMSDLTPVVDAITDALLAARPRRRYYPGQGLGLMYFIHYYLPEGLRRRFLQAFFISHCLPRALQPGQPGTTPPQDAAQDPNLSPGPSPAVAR
Description: Gene expression. The day before transfection, LAPC4 cells were plated into 12 well plates coated with poly-DL-ornithine (˜7×10^5 cells/well). On the day of transfections, an Erlin-2 expressing plasmid, Erlin-2-Myc-DDK-tagged (OriGene) or 11β-HSD2-expressing plasmid FCIV1-11β-HSD2-FLAG was introduced into the cells with Lipofectamine® 3000 Reagent (Life Technology). After 48 hours, the cells were collected and used for the detection of 11β-HSD2 and Erlin-2 by immunoblot, or treated with Enz for 24 hours to determine the effects on cortisol metabolism by HPLC as described herein.

CNC(=O)c1ccc(N2C(=S)N(c3ccc(C#N)c(C(F)(F)F)c3)C(=O)C2(C)C)cc1F [enzalutamide]
cell growth / viability ([1]; LAPC4, after sustained (long-term) enzalutamide treatment): Growth recovers | cell viability ([1]; LAPC4 in vitro, short-term treatment): suppresses LAPC4 viability | direct 11β-HSD2 antagonism [2]: no direct 11β-HSD2 antagonism
